Literature values, collected in patent US10646533B2, “Absorption enhancer for polyphenol” (priority 2015, dated 2020).
Where two headings read alike, the source gives them in different places.

What was measured:
[1] = orally ingested, human
[2] = orally ingested, rat

- migration rate into blood [1]: about 2%
- migration rate into blood [2]: about 2%
SMILES: O=C(O[C@@H]1Cc2c(O)cc(O)cc2O[C@@H]1c1cc(O)c(O)c(O)c1)c1cc(O)c(O)c(O)c1 [epigallocatechin gallate]
